In patent US20230066065A1, “USE OF LOW DOSES OF HYDROXYCHLOROQUINE FOR THE TREATMENT OF LIPIN-1 DEFICIENCY” (Institut National de la Santé et de la Recherche Médicale …, priority 2020, published 2023):
“And” between values parts separate entries of the source, which are not always exact repeats. Equal values may be shown once. “Also recorded” adds a separate entry of the source.

Assays:
[1] = tested on: LC3-II in Lipin-1 deficient and control myoblasts; assay: Autophagy: LC3-II/B-actin ratio by Western Blot in primary myoblasts under immunometabolic stress (EBSS + CpG-A); format: cell-based, human
Experimental: (§1) Human primary myoblasts were isolated and grown as described^19. Briefly, CD56+ myoblasts isolated by flow cytometry cell sorting were maintained in HamF10 medium supplemented with 20% fetal calf serum on culture plates coated with 1% gelatin. To mimic RM, F10 medium was replaced by EBSS ([…]) (4 h) with TLR9 agonist CpGA (ODN2216) at the concentration of 10 μg/ml. Myoblasts were incubated with various HCQ concentrations (0.1 to 10 μM) 18 h before and during myoblasts starvation.
Autophagy measurements. Autophagy was analyzed using the LC3-II/B-actin ratio by Western Blot. The following antibodies used in this study were: mouse-anti-β-actin (sc-81178, Santa Cruz Biotechnology, western blotting (WB): 1:5000), mouse-anti-LC3B (clone 4E12, MBL International, IF: 1:100).

[2] = tested on: patients with Lipin-1 deficiency; assay: Cardiopulmonary exercise test, cycle ergometer (dQ/dVO2); format: in vivo, human
Experimental: Patients≥6 years old underwent cardiopulmonary exercise tests (CPETs). CPETs were performed to assess the maximal exercise capacity using a cycle ergometer^11. The CPET data were compared with retrospectively collected data from a population of 21 paired children who required non-invasive cardiac output monitoring because of dyspnoea during exercise or chest pain and were considered healthy at the end of the examinations. Pairing was conducted according to sex and age. Oxygen uptake (VO2) and carbon dioxide output were measured breath-by-breath by an automated system (Sensor Medic, MSE). Measurements were taken at rest and every 20 s throughout exercise and recovery. The exercise test was considered maximal if the patient achieved a respiratory exchange ratio (RER)>1.1 and/or a maximal heart rate>85% of the theoretical maximal heart rate, and/or the oxygen uptake reached a plateau^11. Cardiac output (Q) and stroke volume (SV) were determined noninvasively during the exercise test using a thoracic bioelectrical impedance device (PhysioFlow, PF-05 Lab 1, Manatec Biomedical) as routinely performed in our centre. We calculated the slope of the relationship between cardiac output and oxygen utilization (dQ/dVO2) using measurements of Q and VO2 at rest as well as during submaximal and maximal exercise.

[3] = tested on: patients with Lipin-1 deficiency; assay: Echocardiography (LVEF); format: in vivo, human
Experimental: Echocardiography was performed using a Vivid 9 system (General Electric Vingmed Ultrasound, Horten, Norway). Transducers ([…]) were chosen based on patient size and morphology to obtain the best image resolution. Images were acquired and stored in a digital format by two experienced examiners for offline analysis using EchoPac version 112.0.1 software (General Electric Vingmed). All records were performed while the patient was in sinus rhythm under continuous monitoring via electrocardiogram. All measurements of ventricular dimensions and function were performed according to the guidelines of the American and European Societies of Echocardiography^51.
The global longitudinal strain of the left ventricle was defined as the percentage of change during myocardial deformation and was evaluated through the speckle-tracking method using EchoPac (2D strain Q analysis) version 112.0.1 (General Electric Vingmed)^11.

[4] = tested on: patients with Lipin-1 deficiency; assay: 6-Minute Walk Test and 3-Minute Step Test; format: in vivo, human; details: patients older than 6 y; versus prior treatment
Experimental: Muscle function was assessed by walking capacity within a 6-Minute Walk Test (6 MWT)^48,49 and by stair climbing capacity within a 3-Minute Step Test (3 MST)^50. The objectives were to walk and climb steps as far as possible for 6 and 3 minutes respectively.

[5] = Dosage of Hydroxychloroquine in blood/plasma of treated patients; format: in vivo, human
Experimental: Clinical and biological parameters were evaluated in parallel of the dosage of HCQ, performed on total blood samples with HPLC. Biological parameter consisted in measuring pro-inflammatory cytokines in plasma with […]. Physical condition included muscle pain (VAS score), quality-of-life assessment (PedsQL™ score), the distance walked during the 6-minute test, the number of steps climbed during the 3-minute test, cardiac function and sub-maximal exercise test. In vitro studies were performed on primary myoblasts from 4 patients and healthy controls. Autophagy was analyzed by measuring the ratio between LC3-II and B-actin by Western Blot. Oxidized DNA was studied by immunofluorescence staining. MtDNA levels was performed by using qPCR.
The dosage of Hydroxychloroquine was performed on total blood samples at a rate of 5 ml per assay tube, using EDTA tubes, and stored at +4° C. (dosages performed in the pharmacology/toxicology Department of the Hospital Cochin and Hospital La Pitié-Salpétrière).

IL8 = assay: Plasma cytokine concentration, Cytometric Bead Assay; format: in vivo, human; details: all patients tested, following vs prior treatment
Experimental: (§2) Cytokine concentrations were measured in plasma using a ten-plex Cytometric Bead Assay (CBA) kit from BD Biosciences, according to the manufacturer's instructions, then analyzed by flow cytometry (ARIA II; BD Biosciences) with CBA Analysis Software (FCAP Array version 3.0; Soft Flow, St Louis Park, Minn.). The results were expressed in picograms per milliliter.

MCP-1 = assay: as above; format: in vivo, human; details: all patients tested, following vs prior treatment
Experimental: as §2

[6] = tested on: patients with Lipin-1 deficiency; assay: Muscle pain (VAS) and quality-of-life (PedsQL) questionnaires; format: in vivo, human
Description: VAS questionnaire was completed by the patient and their parents for evaluating muscle pain, ranged from score 4: not painful, to 40: very painful. Two Quality-of-life assessment ([…]) adapted to the age of the patient were completed by either the patient or their parents. The score ranged from 0: very good quality of life, to 92: very bad quality of life.

[7] = tested on: patients with Lipin-1 deficiency; assay: Evaluation of the tolerance of HCQ (allergy, abdominal pain, eye fundus, retinogram); format: in vivo, human
[8] = tested on: Lipin-1 deficient myoblasts; assay: Oxidized DNA (8-OHdG) immunofluorescence staining in myoblasts under immunometabolic stress; format: cell-based, human
Experimental: as §1
Imuunofluorescence staining. Oxidized DNA on fixed cells was detected with mouse-anti-8-OHdG (sc-66036, Santa Cruz Biotechnology, IF: 1:100)^54 and analyzed by confocal fluorescence microscopy. Images were recorded on a confocal LSM 700 microscope (Zeiss), with a 63× oil immersion objective and quantification was performed by analyzing cells on the Icy software (v 1.9.5.1 BioImage Analysis unit, Institut Pasteur, France).

TLR9 = assay: Relative TLR9 expression in myoblasts, RT-qPCR; format: cell-based, human; details: patient and control myoblasts; EBSS + CpG-A
Description: FIG. 7.(A-C) Relative TLR9 expression in Lipin-1 deficient and control myoblasts; comparison between basal condition and immunometabolic stress (A-B) and after HCQ treatment compared to immunometabolic stress (C); RT-qPCR. compared to basal condition in myoblasts. GM: growth medium; E: EBSS; C: CpG-A; HCQ: Hydroxychloroquine.
as §1

[9] = tested on: patients with Lipin-1 deficiency; assay: Off open-label use phases 1 and 2 study: number of rhabdomyolysis (RM) episodes under HCQ; format: in vivo, human
Experimental: Ten patients with Lipin-1 deficiency were progressively enrolled in an off open-label use phases 1 and 2 study to assess safety, clinical, and biological effects of Hydroxychloroquine Sulfate (HCQ). The diagnosis of Lipin-1 disease was confirmed in all patients (Table 1). LPIN1 genotyping was performed by PCR analysis of DNA isolated from blood as previously described^2. The patients presented severe episodes of acute RM (1 to 6) defined as creatine kinase (CK) levels >6 000 U/L (normal<160 U/L), associated with mild viral illness, fasting, or prolonged exercise. Chronic symptoms such as muscle pain, fatigability, exercise intolerance, or more rarely cardiac feature were associated in 6 patients.
The patients were treated with oral HCQ at an initial posology of 6.5 mg/Kg/day in one intake, not exceeding 400 mg/day, with different treatment duration depending on the patient (Table 2). Tablets (200 mg) were proposed to patients over 6 years old, and soluble form to patients under 6 years old.
Efficacy and safety of HCQ in patients were assessed by clinical and biological evaluation determined at baseline before HCQ treatment and at regular intervals after initiation of HCQ treatment (every 3 to 6 months).
The clinical parameters encompassed the RM episode number and several standardized tools based on age at study start: auto evaluations assessing the muscle pain and the quality of life, 6-Minute Walk Test, 3-Minute Step Test, heart ultrasounds, and exercise tolerance test in the subgroup of subjects>6 years old^11.
The patients were treated with oral HCQ at a initial posology of 6.5 mg/Kg/day in one intake, not exceeding 400 mg/day, with different treatment duration depending on the patient (Table 2). The data were collected at the Necker Hospital (Reference Center of Metabolic diseases) during the visits: M0 (before treatment), M3 (3 months treatment), M6 then every 6 months. The efficacy outcome of the treatment was measured by clinical and biological endpoints.

CYP3A4/CYP2C8 = details: cited from earlier work
[10] = tested on: primary patients myoblasts; format: cell-based, human
Description: Then, we were interested in the dosage og HCQ in vitro in order to analyse the HCQ incorporation in primary patients myoblasts.

[11] = tested on: Lipin-1 deficient myoblasts; assay: MtDNA levels by qPCR in myoblasts under immunometabolic stress; format: cell-based, human; details: myoblasts of P1, P4, P6 and P11; results need to be reproduced
Experimental: as §1
MtDNA levels was performed by using qPCR for the mitochondrial12S gene reported to the nuclear β-actin gene. Quantitative PCR was performed in triplicate using the Light Cycler VIIA7 System (Roche).

Question: With CCN(CCO)CCCC(C)Nc1ccnc2cc(Cl)ccc12.O=S(=O)(O)O (centres unmarked) [HCQ, 2-[[4-[(7-Chloro-4-quinolyl)amino]pentyl]ethylamino] ethanol sulfate (1:1)] as the compound, how does the “LC3-II accumulation (autophagy blockage) under immunometabolic stress” value ([1]; HCQ 10 μM, control and patients myoblasts) read?
Answer: potentiates LC3-II accumulation

Question: And the “LC3-II accumulation (autophagy blockage) under immunometabolic stress” value ([1]; HCQ 0.1 and 1 μM)?
Answer: less deleterious

Question: What about the “dQ/dVO2 ratio after initiation of treatment, global mean” value ([2]; four patients with abnormal peripheral muscle, baseline means 7, 9.5, 9.1, 7.5) of the same compound?
Answer: 5.8

Question: And the “dQ/dVO2 ratio under treatment, mean” value ([2]; patient P3 with cardiac failure, baseline mean 4)?
Answer: 4.8

Question: And the LVEF ([3]; patient P3, M3 of treatment, 45% before)?
Answer: 62%

Question: What about the LVEF ([3]; patient P3, M6, M9, M12 following treatment) of the same compound?
Answer: 63%

Question: And the LVEF ([3]; patient P3, after they stopped treatment)?
Answer: 55%

Question: What about the “increase of median score in 3 MST following treatment” value [4] of the same compound?
Answer: 31 steps

Question: What about the “increase of median score in 6 MWT following treatment” value [4] of the same compound?
Answer: ~100 meters

Question: And the “plasma HCQ levels” value ([5]; P5 and P6, who experimented RM, oral 6.5 mg/Kg/day)?
Answer: 1000 ng/mL

Question: What about the “Plasma HCQ (μg/L) mean” value ([5]; patient P1-P10, oral HCQ, mean of visits) of the same compound?
Answer: 107 µg/L and 724 µg/L and 627 µg/L and 1048 µg/L and 1040 µg/L and 290 µg/L and 610 µg/L and 407 µg/L and 752 µg/L and 318 µg/L

Question: And the “Plasma HCQ (μg/L) (median)” value ([5]; patient P1-P10, oral HCQ, median of visits)?
Answer: (107) μg/L and (854) μg/L and (597) μg/L and (955) μg/L and (1092) μg/L and (205) μg/L and (610) μg/L and (367) μg/L and (733) μg/L and 325) μg/L

Question: And the “Levels of HCQ measured at each visit” value ([5]; patients other than P5 and P6, oral 6.5 mg/Kg/day)?
Answer: ~400 ng/mL

Question: What about the “plasma level of IL8” value (IL8) of the same compound?
Answer: reduced

Question: What about the “plasma level of MCP-1” value (MCP-1) of the same compound?
Answer: reduced

Question: And the “VAS pain score, change under treatment” value ([6]; 2 other patients)?
Answer: no difference

Question: What about the “VAS pain score, median following treatment” value ([6]; 4 patients, score 4 not painful - 40 very painful, median 12.25 prior treatment) of the same compound?
Answer: 7

Question: And the “PedsQL quality-of-life median score under treatment” value ([6]; 6 patients, 0 very good - 92 very bad, score 25 before treatment)?
Answer: 17.1

Question: And the “Electroretinogramms and eye fundus” value ([7]; 12 months of treatment, all patients tested)?
Answer: normal

Question: And the “allergy symptoms with HCQ treatment” value ([7]; all patients)?
Answer: Any allergy symptoms have been observed

Question: What about the “tolerance of HCQ in patients” value ([7]; overall) of the same compound?
Answer: well tolerated

Question: And the “Side effects associated with HCQ” value ([7]; patients 5 and 6)?
Answer: abdominal pain

Question: And the “oxDNA levels in myoblasts” value ([8]; HCQ 0.1 to 10 μM)?
Answer: normalized oxDNA levels

Question: What about the “accumulation of oxDNA under immunometabolic stress” value ([8]; myoblasts of P1, P4, P6 and P11, EBSS + CpG-A) of the same compound?
Answer: prevents this accumulation

Question: What about the “TLR9 expression under stress condition” value (TLR9) of the same compound?
Answer: variable effect; also recorded: could not decrease TLR9 expression

Question: And the “patients without new acute RM under treatment” value ([9]; of 10 patients, 29 RM prior to treatment)?
Answer: Seven

Question: And the “RM after resumption of treatment” value ([9]; patient P1)?
Answer: No other RM was observed

Question: And the “RM after HCQ disruption” value ([9]; patient P1, discontinued at M9, within 6 weeks after disruption)?
Answer: underwent extensive RM

Question: What about the “Number of severe RM (CPK > 10k U/L) during treatment” value ([9]; patient P1-P10, oral HCQ, initial 6.5 mg/Kg/day, treatment duration 12-41 months) of the same compound?
Answer: 0 (7×) and 1 and 3 and 4

Question: And the “episodes of RM despite HCQ” value ([9]; patient P5, context of gastroenteritis)?
Answer: one

Question: What about the “episodes of RM despite HCQ” value ([9]; patient P6, context of gastroenteritis) of the same compound?
Answer: two

Question: What about the “benefit effect of HCQ” value ([9]; patient P7) of the same compound?
Answer: had not seem to have benefit effect

Question: What about the “share of the HCQ metabolism by CYP3A4/CYP2C8” value (CYP3A4/CYP2C8) of the same compound?
Answer: 80%

Question: What about the “HCQ incorporation in primary myoblasts” value [10] of the same compound?
Answer: HCQ incorporation is effective

Question: What about the “accumulation of mtDNA under immunometabolic stress” value [11] of the same compound?
Answer: prevents this accumulation
